# Laboratory results taken from patent US20230218754A1, “PHARMACEUTICAL COMPOSITIONS WITH ANTI-RANKL ANTIBODIES, CALCIUM AND VITAMIN D” (priority 2016, published 2023).
# Where “and” joins values, the source holds several entries; their conditions need not be identical. Identical values can stand only once.
# What was measured:
# [1] = background statement; cited from earlier work
# [2] = serum calcium level in patients under denosumab plus calcium and vitamin D3; assay type: in vivo, human
# Procedure: The following data from an oncological patient (prostate cancer) in Table 5 show the serum levels of calcium and vitamin D3 in administration of 120 mg of denosumab (anti-RANKL antibody, Xgeva) every 4 weeks and the oral administration of 500 mg of calcium daily and 1000 IU of vitamin D3 daily.
# In Table 5, the patient received 120 mg of denosumab every 4 weeks and 500 mg of calcium and 1000 IU of vitamin D3:
# The following data from osteoporosis patients in Table 6 show the serum values of calcium and vitamin D3 in administration of 60 mg of anti-RANKL antibody/denosumab (Prolia) every 6 months and the oral administration of 500 mg of calcium daily and 1000 IU of vitamin D3 daily.
# In Table 6, the osteoporosis patients received 60 mg of denosumab every 6 months, 500 mg of calcium daily, and 1000 IU of vitamin D3, also daily: […]
# [3] = chair-rising test (standing up test) in osteoporosis patients; assay type: in vivo, human; details: 60 mg denosumab (Prolia) + 500 mg calcium + 1000 IE vitamin D3
# Procedure: The so-called “chair-rising test” (standing up test) was carried out in 3 patients.
# The chair-rising test (standing up test) allows a determination to made concerning the strength and falling risk of the test person. The test person is asked to stand up and sit back down five times as quickly as possible with his/her arms folded over his/her chest and without using them from a chair of ordinary height (approximately 46 cm seat height). If the patient is not capable of doing this, the number of successful completions are counted rather than the seconds. If the patient takes longer than 10-11 seconds, it must be assumed that he/she is at increased risk of falling.
# The improvement is given in the right column in %.
# [4] = 25(OH) vitamin D3 serum concentration under vitamin D maintenance dose in patients with vitamin D deficiency; assay type: in vivo, human; details: maintenance dose of 400 IU of vitamin D daily
# [5] = as above; assay type: in vivo, human
# From the text: Vitamin D deficiency is a common diagnosis in osteology practice. […] The maintenance dose was 1000 IU of vitamin D daily.
compound,measurement,setting,value
"C=C1/C(=C\C=C2/CCC[C@]3(C)[C@@H]([C@H](C)CCCC(C)(C)O)CC[C@@H]23)C[C@@H](O)C[C@@H]1O [calcitriol, 1α,25-dihydroxycholecalciferol]",time to maximum serum concentration after intake,[1],three to six
denosumab: anti-RANKL antibody approved as a medicinal preparation; marketed by Amgen as Prolia (60 mg) and Xgeva (120 mg),Calcium (serum),"[2]; oncological patient (prostate cancer), 120 mg denosumab (Xgeva) every 4 weeks + 500 mg calcium and 1000 IU vitamin D3 daily, after 13 weeks",2.11 mmol/L
same,Calcium (serum),"[2]; oncological patient (prostate cancer), 120 mg denosumab (Xgeva) every 4 weeks + 500 mg calcium and 1000 IU vitamin D3 daily, after 26 weeks",2.12 mmol/L
same,Calcium (serum),"[2]; osteoporosis patients, 60 mg denosumab (Prolia) every 6 months + 500 mg calcium and 1000 IU vitamin D3 daily, after 13 weeks",2.34 mmol/L and 2.32 mmol/L and 2.3 mmol/L and 2.37 mmol/L
same,Calcium (serum),"[2]; osteoporosis patients, 60 mg denosumab (Prolia) every 6 months + 500 mg calcium and 1000 IU vitamin D3 daily, after 26 weeks",2.32 mmol/L and 2.45 mmol/L
same,Chair Rising time repeated 6 months later,"[3]; osteoporosis patients, 6 months after beginning therapy",8 s and 10 s
same,reduction of the risk of falling,"[3]; three osteoporosis patients, 6 months",11-29%
vitamin D,maintaining the vitamin D concentration at the standard level,[4],not sufficient
same,25(OH) vitamin D3 serum concentration at maintenance dose of 1000 IU of vitamin D daily,"[5]; individual female patients with initial vitamin D deficiency, 1000 IU vitamin D daily",29.2 ng/mL and 30.4 ng/mL and 28.8 ng/mL and 23.7 ng/mL and 23.2 ng/mL and 30.5 ng/mL and 25.5 ng/mL and 23.4 ng/mL
same,maintaining the vitamin D level in the normal range,[5]; maintenance dose of 1000 IU of vitamin D daily,suitable
